Among the data in patent US20170298052A1, “SUBSTITUTED OXOPYRIDINE DERIVATIVES” (BAYER PHARMA AKTIENGESELLSCHAFT, priority 2014, published 2017) are IC50 values, retold here.

The target of one test is T1, human factor XIa (Homo sapiens, UniProt P03951).
T1 construct: purchased Kordia
The test is described as follows: Measurement of FXIa inhibition (fluorogenic peptide substrate, AMC cleavage). The class given is biochemical. The conditions noted are these: factor XIa from Kordia 0.45 nM; substrate Boc-Glu(OBzl)-Ala-Arg-AMC; 30 min at 22° C. The protocol: The factor XIa inhibition of the substances according to the invention is determined using a biochemical test system which utilizes the reaction of a peptidic factor XIa substrate to determine the enzymatic activity of human factor XIa. Here, factor XIa cleaves from the peptic factor XIa substrate the C-terminal aminomethylcoumarin (AMC), the fluorescence of which is measured. The determinations are carried out in microtitre plates.
1 μl of the diluted substance solutions is placed into each of the wells of white microtitre plates from Greiner (384 wells). […] After 15 min of incubation, the enzyme reaction is started by addition of 20 μl of the factor XIa substrate Boc-Glu(OBzl)-Ala-Arg-AMC dissolved in assay buffer (10 μM in assay buffer) from Bachem, the mixture is incubated at room temperature (22° C.) for 30 min and fluorescence is then measured (excitation: 360 nm, emission: 460 nm). The measured emissions of the test batches with test substance are compared to those of control batches without test substance (only dimethyl sulphoxide instead of test substance in dimethyl sulphoxide), and IC50 values are calculated from the concentration/activity relationships.

In the next test the target is human plasma kallikrein (Homo sapiens, UniProt P03952). The test is described as follows: Determination of the plasma kallikrein activity (fluorogenic peptide substrate, AMC cleavage). The class given is biochemical. The conditions noted are these: plasma kallikrein from Kordia 0.6 nM; substrate H-Pro-Phe-Arg-AMC; 30 min at 22° C.; read-out: IC50 [nM] (Table B, plasma kallikrein inhibition). The protocol: To determine the plasma kallikrein inhibition of the substances according to the invention, a biochemical test system is used which utilizes the reaction of a peptidic plasma kallikrein substrate to determine the enzymatic activity of human plasma kallikrein. Here, plasma kallikrein cleaves from the peptic plasma kallikrein substrate the C-terminal aminomethylcoumarin (AMC), the fluorescence of which is measured. The determinations are carried out in microtitre plates.
Test substances are dissolved in dimethyl sulphoxide and serially diluted in dimethyl sulphoxide (3000 μM to 0.0078 μM; resulting final concentrations in the test: 50 μM to 0.00013 μM). 1 μl of the diluted substance solutions is placed into each of the wells of white microtitre plates from Greiner (384 wells). 20 μl of assay buffer (50 mM Tris/HCl pH 7.4; 100 mM sodium chloride solution; 5 mM of calcium chloride solution; 0.1% of bovine serum albumin) and 20 μl of plasma kallikrein from Kordia (0.6 nM in assay buffer) are then added successively. After 15 min of incubation, the enzyme reaction is started by addition of 20 μl of the substrate H-Pro-Phe-Arg-AMC dissolved in assay buffer (10 μM in assay buffer) from Bachem, the mixture is incubated at room temperature (22° C.) for 30 min and fluorescence is then measured (excitation: 360 nm, emission: 460 nm). The measured emissions of the test batches with test substance are compared to those of control batches without test substance (only dimethyl sulphoxide instead of test substance in dimethyl sulphoxide), and IC50 values are calculated from the concentration/activity relationships.

T1 sequence (P03951 388-625 limits assumed): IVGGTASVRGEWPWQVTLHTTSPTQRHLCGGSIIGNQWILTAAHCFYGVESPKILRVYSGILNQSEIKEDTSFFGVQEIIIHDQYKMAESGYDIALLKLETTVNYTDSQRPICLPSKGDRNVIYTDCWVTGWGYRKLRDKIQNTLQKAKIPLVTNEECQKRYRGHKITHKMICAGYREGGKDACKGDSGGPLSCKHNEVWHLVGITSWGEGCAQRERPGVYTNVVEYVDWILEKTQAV
T1 sequence (P03951 19-387 partner limits assumed): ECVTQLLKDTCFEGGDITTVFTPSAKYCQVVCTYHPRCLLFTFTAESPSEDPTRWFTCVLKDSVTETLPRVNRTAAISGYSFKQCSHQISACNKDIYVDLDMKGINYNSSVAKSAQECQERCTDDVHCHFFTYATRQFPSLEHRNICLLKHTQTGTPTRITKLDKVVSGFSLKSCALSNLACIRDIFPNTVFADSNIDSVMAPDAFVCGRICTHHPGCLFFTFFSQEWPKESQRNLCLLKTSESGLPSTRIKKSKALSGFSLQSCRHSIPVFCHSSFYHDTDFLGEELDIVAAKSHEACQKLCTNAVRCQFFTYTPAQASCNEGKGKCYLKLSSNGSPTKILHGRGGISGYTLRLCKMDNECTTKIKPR
human plasma kallikrein, sequence (P03952 391-638 limits assumed): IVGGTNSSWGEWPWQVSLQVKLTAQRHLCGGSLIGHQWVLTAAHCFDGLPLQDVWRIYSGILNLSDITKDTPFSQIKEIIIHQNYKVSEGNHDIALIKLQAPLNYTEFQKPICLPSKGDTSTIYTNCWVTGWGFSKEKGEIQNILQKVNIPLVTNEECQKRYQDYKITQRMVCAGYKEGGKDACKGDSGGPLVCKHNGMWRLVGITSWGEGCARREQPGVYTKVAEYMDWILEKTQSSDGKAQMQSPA
human plasma kallikrein, sequence (P03952 20-390 partner limits assumed): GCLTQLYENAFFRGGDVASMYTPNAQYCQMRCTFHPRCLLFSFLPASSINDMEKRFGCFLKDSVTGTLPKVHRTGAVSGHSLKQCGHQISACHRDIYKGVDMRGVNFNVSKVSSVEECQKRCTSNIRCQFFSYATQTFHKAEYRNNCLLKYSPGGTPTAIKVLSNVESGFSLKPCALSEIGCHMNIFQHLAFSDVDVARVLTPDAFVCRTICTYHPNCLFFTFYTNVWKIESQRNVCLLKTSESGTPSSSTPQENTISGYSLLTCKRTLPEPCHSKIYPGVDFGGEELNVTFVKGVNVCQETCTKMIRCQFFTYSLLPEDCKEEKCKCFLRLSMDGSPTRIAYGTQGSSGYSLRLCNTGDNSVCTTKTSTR

In the case of `COc1cn(C(Cc2ccccn2)C(=O)Nc2ccc(C(N)=O)c(F)c2)c(=O)cc1-c1cc(Cl)ccc1C(F)F` (racemic) [Example 34, 4-{[2-{4-[5-Chloro-2-(difluoromethyl)phenyl]-5-methoxy-2-oxopyridin-1(2H)-yl}-3-(pyridin-2-yl)propanoyl}amino]-2-fluorobenzamide], the values for the IC50 at human factor XIa and at human plasma kallikrein were 42 nM and 53 nM, respectively.
Regarding `COc1cn(C(Cc2nnc(C3CC3)o2)C(=O)Nc2ccc(C(N)=O)c(F)c2)c(=O)cc1-c1cc(Cl)ccc1C#N` (racemic) [Example 39, 4-({2-[4-(5-Chloro-2-cyanophenyl)-5-methoxy-2-oxopyridin-1(2H)-yl]-3-(5-cyclopropyl-1,3,4-oxadiazol-2-yl)propanoyl}amino)-2-fluorobenzamide], the results for the half-maximal inhibitory concentration (IC50) against human factor XIa and at human plasma kallikrein were 70 nM and 38 nM, respectively.
The matching figures for `COc1cn(C(Cc2cc(C)on2)C(=O)Nc2ccc(C(N)=O)c(F)c2)c(=O)cc1-c1cc(Cl)ccc1C#N` (racemic) [Example 37, 4-({2-[4-(5-Chloro-2-cyanophenyl)-5-methoxy-2-oxopyridin-1(2H)-yl]-3-(5-methyl-1,2-oxazol-3-yl)propanoyl}amino)-2-fluorobenzamide]: 12 nM and 6.2 nM.
In the case of `CCC(C(=O)Nc1ccc(C(=O)NC)c(F)c1)n1cc(OC)c(-c2cc(Cl)ccc2C#N)cc1=O` (stereo not drawn) [Example 8], the results for the half-inhibitory concentration (IC50) against human factor XIa and at human plasma kallikrein were 12 nM and 30 nM, respectively.
As for `COCCC(C(=O)Nc1ccc(C(N)=O)c(OC)c1)n1cc(OC)c(-c2cc(Cl)ccc2C#N)cc1=O` (racemic) [Example 48, 4-({2-[4-(5-Chloro-2-cyanophenyl)-5-methoxy-2-oxopyridin-1(2H)-yl]-4-methoxybutanoyl}amino)-2-methoxybenzamide], the IC50 at human factor XIa is 15 nM; on human plasma kallikrein, 7.7 nM.
The matching figures for `CNC(=O)c1ccc(NC(=O)C(Cc2ccn(C)n2)n2cc(OC)c(-c3cc(C)ccc3C#N)cc2=O)cc1F` (racemic) [Example 44, 4-({2-[4-(2-Cyano-5-methylphenyl)-5-methoxy-2-oxopyridin-1(2H)-yl]-3-(1-methyl-1H-pyrazol-3-yl)propanoyl}amino)-2-fluoro-N-methylbenzamide]: 19 nM and 12 nM.
On the same counts, the results for `CCC(C(=O)Nc1ccc(C(=O)NC)cc1)n1cc(OC)c(-c2cc(Cl)ccc2C#N)cc1=O` (racemic) [Example 26, 4-({2-[4-(5-chloro-2-cyanophenyl)-5-methoxy-2-oxopyridin-1(2H)-yl]butanoyl}amino)-N-methylbenzamide] are 20 nM and 20 nM.
The matching figures for `COc1cn(C(CCOC(C)C)C(=O)Nc2ccc(C(N)=O)c(F)c2)c(=O)cc1-c1cc(Cl)ccc1C#N` (racemic) [Example 19, 4-({2-[4-(5-Chloro-2-cyanophenyl)-5-methoxy-2-oxopyridin-1(2H)-yl]-4-isopropoxybutanoyl}amino)-2-fluorobenzamide]: 12.5 nM and 7.4 nM.
Regarding `COc1cn(C(Cc2nnc(C)o2)C(=O)Nc2ccc(C(N)=O)c(F)c2)c(=O)cc1-c1cc(Cl)ccc1C#N` (racemic) [Example 35, 4-({2-[4-(5-Chloro-2-cyanophenyl)-5-methoxy-2-oxopyridin-1(2H)-yl]-3-(5-methyl-1,3,4-oxadiazol-2-yl)propanoyl}amino)-2-fluorobenzamide], the IC50 against human factor XIa was found to be 12 nM; at human plasma kallikrein, 7.3 nM.
On the same counts, the results for `N#Cc1ccc(Cl)cc1-c1cc(=O)n(C(C[C@@H]2CCCCO2)C(=O)Nc2ccc(C(N)=O)c(F)c2)cc1Cl` (stereo partly drawn) [Example 14] are 25 nM and 210 nM.
On the same counts, the results for `CCC(C(=O)Nc1ccc(C(=O)NC)c(Cl)c1)n1cc(OC)c(-c2cc(Cl)ccc2C#N)cc1=O` (racemic) [Example 27, 2-Chloro-4-({2-[4-(5-chloro-2-cyanophenyl)-5-methoxy-2-oxopyridin-1(2H)-yl]butanoyl}amino)-N-methylbenzamide] are 50 nM and 71 nM.
Consider `COc1cn(C(Cc2cnco2)C(=O)Nc2ccc(C(N)=O)c(F)c2)c(=O)cc1-c1cc(Cl)ccc1C#N` (stereo not drawn) [Example 5], for which the IC50 at human factor XIa and at human plasma kallikrein was 14 nM throughout.
As to `COc1cn(C(CCOC(C)(C)C)C(=O)Nc2ccc(C(N)=O)c(F)c2)c(=O)cc1-c1cc(Cl)ccc1C#N` (racemic) [Example 21, 4-({4-tert-Butoxy-2-[4-(5-chloro-2-cyanophenyl)-5-methoxy-2-oxopyridin-1(2H)-yl]butanoyl}amino)-2-fluorobenzamide], the IC50 at human factor XIa worked out at 7.4 nM; on human plasma kallikrein, 6.8 nM.
The matching figures for `COc1cn(C(Cc2ccn(C)n2)C(=O)Nc2ccc(C(N)=O)c(F)c2)c(=O)cc1-c1cc(C)ccc1C#N` (racemic) [Example 43, 4-({2-[4-(2-Cyano-5-methylphenyl)-5-methoxy-2-oxopyridin-1(2H)-yl]-3-(1-methyl-1H-pyrazol-3-yl)propanoyl}amino)-2-fluorobenzamide]: 12 nM and 8.3 nM.
The matching figures for `COCCC(C(=O)Nc1ccc(C(N)=O)c(F)c1)n1cc(OC)c(-c2cc(C)ccc2C#N)cc1=O` (single isomer, unassigned) [Example 24, 4-({2-[4-(2-Cyano-5-methylphenyl)-5-methoxy-2-oxopyridin-1(2H)-yl]-4-methoxybutanoyl}amino)-2-fluorobenzamide]: 27 nM and 25 nM.
Regarding `COc1cn(C(Cc2noc(C)n2)C(=O)Nc2ccc(C(N)=O)c(F)c2)c(=O)cc1-c1cc(Cl)ccc1C#N` (racemic) [Example 33, 4-({2-[4-(5-Chloro-2-cyanophenyl)-5-methoxy-2-oxopyridin-1(2H)-yl]-3-(5-methyl-1,2,4-oxadiazol-3-yl)propanoyl}amino)-2-fluorobenzamide], the figures for the IC50 on human factor XIa and on human plasma kallikrein were 15 nM and 10 nM, respectively.
The matching figures for `CNC(=O)c1ccc(NC(=O)C(Cc2coc(C)n2)n2cc(OC)c(-c3cc(Cl)ccc3C#N)cc2=O)cc1F` (racemic) [Example 47, 4-({2-[4-(5-Chloro-2-cyanophenyl)-5-methoxy-2-oxopyridin-1(2H)-yl]-3-(2-methyl-1,3-oxazol-4-yl)propanoyl}amino)-2-fluoro-N-methylbenzamide]: 32 nM and 24 nM.
As to `N#Cc1ccc(Cl)cc1-c1cc(=O)n(C(Cc2cnco2)C(=O)Nc2ccc(C(N)=O)c(F)c2)cc1OC(F)F` (stereo not drawn) [Example 1], the IC50 against human factor XIa turned out to be 240 nM; on human plasma kallikrein, 490 nM.
For `COc1cn(C(CCOCC(F)F)C(=O)Nc2ccc(C(N)=O)c(F)c2)c(=O)cc1-c1cc(Cl)ccc1C#N` (racemic) [Example 22, 4-({2-[4-(5-Chloro-2-cyanophenyl)-5-methoxy-2-oxopyridin-1(2H)-yl]-4-(2,2-difluoroethoxy)-butanoyl}amino)-2-fluorobenzamide], the IC50 on human factor XIa stood at 21 nM; at human plasma kallikrein it was 12 nM.
On the same counts, the results for `COCCC(C(=O)Nc1ccc(C(N)=O)c(F)c1)n1cc(Cl)c(-c2cc(Cl)ccc2C#N)cc1=O` (stereo not drawn) [Example 6] are 47 nM and 110 nM.
On the same counts, the results for `COCCC(C(=O)Nc1ccc(C(N)=O)c(F)c1)n1cc(OC)c(-c2cc(C)ccc2C#N)cc1=O` (racemic) [Example 49, 4-({2-[4-(2-Cyano-5-methylphenyl)-5-methoxy-2-oxopyridin-1(2H)-yl]-4-methoxybutanoyl}amino)-2-fluorobenzamide] are 28 nM and 27 nM.
